“Also recorded” adds a separate entry of the source. Like-named read-outs stand apart in the source and are kept apart here. Square brackets hold non-standard residues; d marks the D form. Ends that are not written are not given here. βLeu = beta-Leu
Assays:
[1] = target: T1, CDK4/Cyclin D1 (Homo sapiens, UniProt P24385); experiment: CDK4/Cyclin D1 kinase assay, phosphorylation of GST-Rb; type: biochemical
T1 construct: made in house; host or cells: CDK4: Sf9 insect cells (baculovirus)
Method: (§1) The phosphorylation reaction mixture (total volume 40 μl) consisted of 50 mM HEPES pH 7.4, 20 mM MgCl2, 5 mM EGTA, 2 mM DTT, 20 mM β-glycerophosphate, 2 mM NaF, 1 mM Na3VO4, Protease Inhibitors Cocktail (Sigma, see above), BSA 0.5 mg/ml, 1 μg purified enzyme complex, 10 μl of GST-Rb-Sepharose beads, 100 μM ATP, 0.2 μCi ^32P-ATP. The reaction was carried out for 30 min at 30° C. at constant shaking. At the end of this period 100 μl of 50 mM HEPES, pH 7.4 and 1 mM ATP were added to each well and the total volume was transferred onto GFC filtered plate. The plate was washed 5 times with 200 μl of 50 mM HEPES, pH 7.4 and 1 mM ATP. To each well were added 50 μl scintillant liquid and the radioactivity of the samples was measured on Scintilation counter (Topcount, HP). The IC50 values of different peptides were calculated using GraFit software.
Peptides were synthesized as described above. Cyclin D1 was expressed in E coli BL21(DE3) using PET expression vector and purified from the inclusion bodies. After refolding Cyclin D1 was cross-linked on SulfoLink agarose support (PIERCE). CDK4-6×His was expressed in Sf9 insect cells infected with the appropriate baculovirus construct and purified by metal-affinity chromatography (Quiagen). […] CDK4/Cyclin D1 phosphorilation of Rb was determined by incorporation of radio-labeled phosphate in GST-Rb in 96-well format kinase assay. […] The reaction was carried out for 30 min at 30 C at constant shaking. The GST-Rb-Sepharose beads were washed with 50 mM HEPES and 1 mM ATP and the radioactivity was measured on Scintillation counter (Topcount, HP)

[2] = target: T2, Cyclin D1 (Homo sapiens, UniProt P24385); experiment: Competitive Cyclin D1 binding assay (ELISA), immobilised biotinylated p21 (149-159); settings: for IC50: immobilised p21 (149-159) peptide
T2 construct: made in house
T2 sequence (P24385 whole entry): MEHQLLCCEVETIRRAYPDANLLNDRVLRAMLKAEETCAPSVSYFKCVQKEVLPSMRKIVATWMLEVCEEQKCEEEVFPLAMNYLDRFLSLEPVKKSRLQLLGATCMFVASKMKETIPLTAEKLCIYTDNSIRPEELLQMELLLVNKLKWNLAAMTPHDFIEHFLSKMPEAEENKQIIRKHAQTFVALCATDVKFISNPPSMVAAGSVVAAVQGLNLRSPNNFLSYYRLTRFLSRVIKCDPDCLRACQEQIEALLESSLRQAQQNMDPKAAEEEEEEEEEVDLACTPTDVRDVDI
Source text: The amount of bound Cyclin D1/Cyclin A was immunodetected and quantified by Turbo-ELISA reagent (PIERCE).
The next important question was if these peptides share the same kinase inhibitory mechanism (bind to the same Cyclin docking site).

[3] = target: T3, CDK2/Cyclin E (Homo sapiens, UniProt P24864); experiment: CDK2/Cyclin E kinase assay, phosphorylation of GST-Rb; type: biochemical
T3 construct: 6xHis; made in house; host or cells: Sf9 insect cells (baculovirus co-expression)
Method: as §1

[4] = target: T4, CDK2/cyclin A (Homo sapiens, UniProt P20248); experiment: Functional kinase assay, CDK2/cyclin A phosphorylation of GST-pRb(773-928); type: biochemical; settings: read-out: Inhibitory activity IC50 ± SD, Functional kinase assay
Method: Reactions were stopped on ice, followed by addition of 5 μL/well of glutathione-Sepharose 4B (Amersham Biosciences) and further incubation with shaking for 30 min at room temperature. The mixtures were then filtered on Whatman GF/C filterplates and washed 4 times with 0.2 mL/well of 50 mM HEPES containing 1 mM ATP. Plates were dried, sealed, and scintillant (Microscint 40) was added. Incorporated radioactivity was measured using a scintillation counter (TopCount, Packard Instruments, Pangbourne, Berks, UK). Half-maximal inhibition (IC50) was calculated from dose-response curves.

[5] = target: T5, CDK1/Cyclin B (Homo sapiens, UniProt P14635); experiment: CDK1/Cyclin B kinase assay, phosphorylation of Histone 1; type: biochemical; settings: for IC50: CDK1-Cyclin B induced phosphorylation of Histone 1
T5 construct: 6xHis; made in house; host or cells: Sf9 insect cells (baculovirus co-expression)
T5 sequence (P14635 whole entry): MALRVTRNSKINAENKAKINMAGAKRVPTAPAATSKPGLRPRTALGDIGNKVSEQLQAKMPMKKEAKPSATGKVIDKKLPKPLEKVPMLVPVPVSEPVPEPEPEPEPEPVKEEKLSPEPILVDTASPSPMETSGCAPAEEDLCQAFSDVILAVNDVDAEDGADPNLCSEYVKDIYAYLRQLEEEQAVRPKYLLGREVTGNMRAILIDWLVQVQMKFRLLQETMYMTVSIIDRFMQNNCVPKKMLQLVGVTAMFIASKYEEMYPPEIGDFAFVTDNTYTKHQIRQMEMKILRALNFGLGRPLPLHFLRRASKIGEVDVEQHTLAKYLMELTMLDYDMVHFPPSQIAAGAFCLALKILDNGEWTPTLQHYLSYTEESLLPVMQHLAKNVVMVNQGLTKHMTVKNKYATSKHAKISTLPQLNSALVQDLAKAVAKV
T5 sequence (P06493 whole entry partner): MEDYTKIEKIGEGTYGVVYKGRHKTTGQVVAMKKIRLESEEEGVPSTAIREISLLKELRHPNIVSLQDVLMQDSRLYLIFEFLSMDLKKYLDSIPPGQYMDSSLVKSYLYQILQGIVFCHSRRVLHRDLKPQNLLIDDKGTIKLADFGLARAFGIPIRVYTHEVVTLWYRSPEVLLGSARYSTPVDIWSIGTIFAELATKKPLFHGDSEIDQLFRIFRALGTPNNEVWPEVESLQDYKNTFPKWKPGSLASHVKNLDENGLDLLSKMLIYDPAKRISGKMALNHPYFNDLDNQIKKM
Method: (§2) Histone 1 phosphorylation induced by CDK2/Cyclin E and CDK1/Cyclin B was measured using similar method. The concentration of Histone 1 in the kinase reaction was 1 mg/ml (unless different stated).

[6] = target: T5, CDK1/Cyclin B; experiment: CDK1/Cyclin B kinase assay, phosphorylation of GST-Rb; type: biochemical; settings: CDK1-Cyclin B induced phosphorylation of GST-Rb
Method: as §1

[7] = target: T6, CDK4 (Homo sapiens, UniProt P11802); experiment: Pull-down with immobilised biotinylated peptide: CDK4; type: binding; settings: in the absence of cyclin partner
T6 construct: 6xHis; made in house; host or cells: Sf9 insect cells (baculovirus)
T6 sequence (P11802 whole entry, species assumed): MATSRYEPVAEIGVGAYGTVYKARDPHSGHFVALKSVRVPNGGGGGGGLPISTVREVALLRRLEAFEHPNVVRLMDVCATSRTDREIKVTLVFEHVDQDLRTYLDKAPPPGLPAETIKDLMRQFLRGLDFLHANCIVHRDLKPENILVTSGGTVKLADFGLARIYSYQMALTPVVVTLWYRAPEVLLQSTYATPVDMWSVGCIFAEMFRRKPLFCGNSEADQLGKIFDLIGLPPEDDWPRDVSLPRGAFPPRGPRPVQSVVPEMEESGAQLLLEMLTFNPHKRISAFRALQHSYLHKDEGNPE
Source text: (§3) A biotinylated version of p21(149-159) was used in “pull-down” experiments with the purified CDK sub-units, CDK2, CDK4, cyclin A, cyclin D1, and with the complexes of CDK2/cyclin A or CDK4/cyclin D1 kinases, in order to determine the binding partner of the peptide. The biotinylated peptide was pre-immobilised on streptavidin-agarose beads. […] Both CDK2 and CDK4 were “pulled down”, however, with biotinylated p21(149-159)-streptavidin-agarose beads when they were in a complex with cyclin A or cyclin D1, respectively. Similar results were obtained with cyclin E and CDK2/cyclin E complex. […] Such a method may be utilised either alone or together with a candidate substance to identify cyclin binding moities and/or inhibitors of cyclin-CDK interaction.

[8] = target: CDK2 (Homo sapiens, UniProt P24941); experiment: Pull-down with immobilised biotinylated peptide: CDK2; type: binding; settings: in the absence of cyclin partner
Source text: as §3

[9] = target: T7, Cyclin A (Homo sapiens, UniProt P20248); experiment: Pull-down with immobilised biotinylated peptide: cyclin A; type: binding; settings: biotinylated peptide on streptavidin-agarose beads
T7 sequence (P20248 whole entry): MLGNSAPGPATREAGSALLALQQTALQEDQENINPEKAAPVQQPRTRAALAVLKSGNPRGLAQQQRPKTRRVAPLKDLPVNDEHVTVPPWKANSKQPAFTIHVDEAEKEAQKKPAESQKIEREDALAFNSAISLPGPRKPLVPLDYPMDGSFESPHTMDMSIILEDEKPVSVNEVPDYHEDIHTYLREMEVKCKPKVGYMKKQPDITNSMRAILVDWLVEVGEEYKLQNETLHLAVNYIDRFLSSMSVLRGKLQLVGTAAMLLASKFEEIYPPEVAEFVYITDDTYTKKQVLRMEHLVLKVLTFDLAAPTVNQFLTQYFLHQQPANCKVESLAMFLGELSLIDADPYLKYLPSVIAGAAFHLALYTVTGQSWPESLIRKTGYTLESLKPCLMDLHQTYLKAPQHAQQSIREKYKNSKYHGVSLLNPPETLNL
Source text: as §3

[10] = target: T2, Cyclin D1; experiment: Pull-down with immobilised biotinylated peptide: cyclin D1; type: binding; settings: biotinylated peptide on streptavidin-agarose beads
Source text: as §3

[11] = target: cyclin B (Homo sapiens, UniProt P14635); experiment: Pull-down with immobilised peptide: cyclin B; type: binding
Sequence of cyclin B (P14635 whole entry): as the sequence (P14635 whole entry) above

[12] = target: T3, CDK2/Cyclin E; experiment: CDK2/Cyclin E kinase assay, phosphorylation of Histone 1; type: biochemical
Method: as §2

[13] = target: T7, Cyclin A; experiment: Cyclin A binding assay, immobilised biotinyl-Ahx-[…]NH2; settings: relative to H-His-Ala-Lys-Arg-Arg-Leu-Ile-Phe-NH2 (=1)
[14] = target: T4, CDK2/cyclin A; experiment: CDK2/cyclin A kinase assay, substrate pRb(773-928); type: biochemical; settings: relative to H-His-Ala-Lys-Arg-Arg-Leu-Ile-Phe-NH2 (=1), pRb substrate, [ATP] = 100 μM
Source text: Reactions were stopped on ice, followed by filtration through p81 filterplates (Whatman Polyfiltronics, Kent, UK).

[15] = target: T1, CDK4/Cyclin D1; settings: WO97/42222 and Ball et al., cited from earlier work
[16] = target: T3, CDK2/Cyclin E; settings: GST-Rb phosphorylation; Ball et al.; cited from earlier work
[17] = GST-pRb substrate, [ATP] = 100 μM

T1 sequence (P24385 whole entry): as the sequence (P24385 whole entry) above
T1 sequence (P11802 whole entry partner): as the sequence (P11802 whole entry, species assumed) above

CC(C)C[C@H](NC(=O)[C@H](CC(=O)O)NC(=O)[C@H](CC(C)C)NC(=O)[C@H](CCCNC(=N)N)NC(=O)[C@H](CCCNC(=N)N)NC(=O)[C@H](CCCCN)NC(=O)[C@H](CO)NC(=O)[C@@H](N)Cc1c[nH]cn1)C(N)=O
inhibition of CDK4/Cyclin D1 phosphorylation of GST-Rb, in words [1]: not able to inhibit
Kinase Inhibition Cyclin D1/CDK4 % Inhibition ([1]; phosphorylation of pRb): 24%
competition with Biotin-DFYHSKRRLIF for binding to Cyclin D1, in words [2]: not able
IC50 [2]: > 200 µM
Kinase Inhibition Cyclin E/CDK2 % Inhibition ([3]; phosphorylation of pRb): 74%

CC(C)C[C@H](NC(=O)[C@H](CCCNC(=N)N)NC(=O)[C@H](CCCNC(=N)N)NC(=O)[C@H](CCCCN)NC(=O)[C@H](CO)NC(=O)[C@@H](N)Cc1c[nH]cn1)C(=O)N[C@@H](Cc1ccccc1)C(=O)NCC(N)=O
IC50 [2]: > 200 µM

CC[C@H](NC(=O)[C@H](C)NC(=O)[C@@H](N)CO)C(=O)N[C@@H](CCCNC(=N)N)C(=O)N[C@@H](CC(N)=O)C(=O)N[C@@H](CC(C)C)C(=O)N[C@@H](Cc1ccccc1)C(=O)NCC(N)=O [SEQ ID NO. 41, H-Ser-Ala-Abu-Arg-Asn-Leu-Phe-Gly-NH2]
IC50 [2]: > 200 µM

CC(=O)N[C@@H](CC(C)C)C(=O)N[C@@H](CC(N)=O)C(=O)N[C@@H](Cc1ccc(F)cc1)C(N)=O [VI.42]
IC50 [4]: 139 ± 10 µM

CC[C@H](C)[C@H](NC(=O)[C@H](CC(C)C)NC(=O)[C@H](CCCNC(=N)N)NC(=O)[C@H](CCCNC(=N)N)NC(=O)[C@H](CCCCN)NC(=O)[C@H](C)NC(=O)[C@H](Cc1c[nH]cn1)NC(=O)[C@H](Cc1ccc(O)cc1)NC(=O)[C@H](Cc1ccccc1)NC(=O)[C@@H](N)CC(=O)O)C(=O)N[C@@H](Cc1ccccc1)C(=O)N[C@@H](CO)C(N)=O [p21(149-160)Ser153Ala]
IC50 [5]: > 200 µM
IC50 ([3]; read-out: IC50, CDK2-Cyclin E induced phosphorylation of GST-Rb): 0.04 µM
IC50 [6]: > 200 µM

CC(C)C[C@H](NC(=O)[C@H](CC(=O)O)NC(=O)[C@H](CC(C)C)NC(=O)[C@H](CCCNC(=N)N)NC(=O)[C@H](CCCNC(=N)N)NC(=O)[C@H](CCCCN)NC(=O)[C@@H](NC(=O)[C@@H]1CCCN1)C(C)C)C(N)=O [reference compound]
inhibition of CDK4/Cyclin D1 phosphorylation of GST-Rb, in words [1]: not able to inhibit
Kinase Inhibition Cyclin D1/CDK4 % Inhibition ([1]; phosphorylation of pRb): 58%
IC50 ([1]; phosphorylation of pRb, read-out: Kinase Inhibition Cyclin D1/CDK4 IC50): 99 µM
competition with Biotin-DFYHSKRRLIF for binding to Cyclin D1, in words [2]: not able
IC50 [2]: > 100 µM
Kinase Inhibition Cyclin E/CDK2 % Inhibition ([3]; phosphorylation of pRb): 74%
IC50 ([3]; phosphorylation of pRb, read-out: Kinase Inhibition Cyclin E/CDK2 IC50): 2.1 µM

H-DFYHSKRRLIF-NH2 [p21(149-159)]
binding to CDK4 in pull-down [7]: failed to interact
binding to CDK2 in pull-down [8]: failed to interact
binding to cyclin A in pull-down [9]: bound
IC50 [6]: > 200 µM
binding to cyclin D1 in pull-down [10]: bound

H-DFYHSKRRLIFS-NH2 [p21(149-160)]
inhibition of CDK4/Cyclin D1 phosphorylation of GST-Rb, in words [1]: very similar activity
inhibition at 100 µM [1, 17]: 70%
inhibition of CDK1/cyclin B phosphorylation of histone H1, in words [5]: did not have any significant effect
IC50 [5]: > 200 µM
inhibition of CDK2/Cyclin E phosphorylation of GST-Rb, in words [3]: specifically inhibit
pull-down of cyclin B (monomer or complex with CDK1) [11]: unable to precipitate
IC50 [6]: > 200 µM
inhibition of CDK2/Cyclin E phosphorylation of Histone 1, in words [12]: completely inactive; also recorded: did not inhibit
inhibition of CDK2/Cyclin E phosphorylation of Histone 1, in words ([12]; listed as p21 (149-160)): do not inhibit

H-HAKRRLIF-NH2
IC50 [2]: 13 µM

HAKRRLIK-NH2
Relative activity Cyclin A Binding ([13]; Phe159 substitutions): <0.1
Relative activity Kinase Inhibition ([14]; Phe159 substitutions): <0.1

HAKRRLIL-NH2
Relative activity Cyclin A Binding ([13]; Phe159 substitutions): <0.1
Relative activity Kinase Inhibition ([14]; Phe159 substitutions): 0.3

HAKRRLIW-NH2
Relative activity Cyclin A Binding ([13]; Phe159 substitutions): 0.1
Relative activity Kinase Inhibition ([14]; Phe159 substitutions): 0.3

HAKRRLIY-NH2
Relative activity Cyclin A Binding ([13]; Phe159 substitutions): 0.2
Relative activity Kinase Inhibition ([14]; Phe159 substitutions): 0.3

HAKRRLLF-NH2
Relative activity Cyclin A Binding ([13]; Ile158 substitutions): 0.6
Relative activity Kinase Inhibition ([14]; Ile158 substitutions): 1.2

KRRLIFSK [reference compound]
Kinase Inhibition Cyclin D1/CDK4 % Inhibition [1, 17]: 20%
concentration for inhibitory activity against cyclin D1-CDK4 relative to parent p21(141-160) [15]: 1000 times
Kinase Inhibition Cyclin E/CDK2 % Inhibition [3, 17]: 60%
Kinase Inhibition Cyclin E/CDK2 IC30 [3, 17]: >200 µM

VI.38 (Ac-RR[βLeu]F-NH2)
IC50 ([4]; recombinant human CDK2/cyclin A, GST-pRb(773-928) substrate, 30 min at 30° C): 216 µM

p21(141-160): 20-residue peptide derived from the C-terminus of p21^WAF1 (residues 141-160), Ball et al.
IC50 ([15]; Asp149Ala effect said not reproducible, read-out: IC50, cyclin D1-CDK4 inhibition): 0.1 µM
activity against cyclinD1/CDK4 relative to cyclinE/CDK2 [16]: 40 times

From US20050153894A1, “p21 peptides” (Cyclacel Limited, priority 1999, published 2005)
